Experimental data taken from ChEMBL document CHEMBL5550211 (J Med Chem, 2024).
Converted amounts (≈) assume the structure as drawn. The source made the active and inactive calls. No cut-off for these calls is given here.

What was measured:
[1] = Tmax in mouse at 30 mg/kg, po; assay type: ADME, organism-based; details: in vivo
[2] = Tmax in mouse at 10 mg/kg, po; assay type: ADME, organism-based; details: in vivo
[3] = Tmax in mouse at 5 mg/kg, po; assay type: ADME, organism-based; details: in vivo
[4] = Cmax in mouse at 30 mg/kg, po; assay type: ADME, organism-based; details: in vivo
[5] = Cmax in mouse at 10 mg/kg, po; assay type: ADME, organism-based; details: in vivo
[6] = Volume of distribution at steady state in mouse at 3 mg/kg, iv; assay type: ADME, organism-based; details: in vivo, read-out: Vdss
[7] = Cmax in mouse at 5 mg/kg, po; assay type: ADME, organism-based; details: in vivo
[8] = Half-life in mouse at 3 mg/kg, iv; assay type: ADME, organism-based; details: in vivo
[9] = molecular target: Voltage-gated inwardly rectifying potassium channel KCNH2 (Homo sapiens, UniProt Q12809); assay: Inhibition of hERG; assay type: toxicity
[10] = Clearance in mouse at 3 mg/kg, iv; assay type: ADME, organism-based; details: in vivo
[11] = Apparent permeability across apical to basolateral side in LLC-PK1 cells; assay type: ADME, cell-based, Sus scrofa; details: pig
[12] = Dissociation constant, pKa of the compound; assay type: physicochemical
[13] = Chemical stability in MeOH/NaHCO3/glutathione assessed as drug metabolism assessed as SN2 substitution after 50 degreeC overnight incubation; assay type: physicochemical; details: read-out: Drug metabolism
[14] = Chemical stability in MeOH/NaHCO3/cysteine assessed as drug metabolism assessed as SN2 substitution after 50 degreeC overnight incubation; assay type: physicochemical; details: read-out: Drug metabolism
[15] = Plasma protein binding in mouse assessed as unbound fraction; assay type: ADME, cell-free
[16] = Plasma protein binding in rat assessed as unbound fraction; assay type: ADME, cell-free
[17] = Plasma protein binding in dog assessed as unbound fraction; assay type: ADME, cell-free, Canis lupus familiaris
[18] = Plasma protein binding in cynomolgus monkey assessed as unbound fraction; assay type: ADME, cell-free, Macaca fascicularis
[19] = Plasma protein binding in human assessed as unbound fraction; assay type: ADME, cell-free
[20] = Protein binding in mouse brain assessed as unbound fraction; assay type: ADME, tissue-based
[21] = Protein binding in rat brain assessed as unbound fraction; assay type: ADME, tissue-based
[22] = Protein binding in dog brain assessed as unbound fraction; assay type: ADME, tissue-based, Canis lupus familiaris
[23] = Protein binding in cynomolgus monkey brain assessed as unbound fraction; assay type: ADME, tissue-based, Macaca fascicularis
[24] = Solubility in stimulated gastric fluid at pH 1.2; assay type: ADME; details: simulated gastric fluid
[25] = Solubility in stimulated intestinal fluid at pH 6.5; assay type: ADME; details: simulated intestinal fluid
[26] = Solubility in buffer at pH 7.4; assay type: physicochemical
[27] = AUCinfinity in mouse at 5 mg/kg, po; assay type: ADME, organism-based; details: in vivo
[28] = AUCinfinity in mouse at 10 mg/kg, po; assay type: ADME, organism-based; details: in vivo
[29] = AUCinfinity in mouse at 30 mg/kg, po; assay type: ADME, organism-based; details: in vivo
[30] = Oral bioavailability in mouse at 5 mg/kg; assay type: ADME, organism-based; details: in vivo
[31] = Oral bioavailability in mouse at 10 mg/kg; assay type: ADME, organism-based; details: in vivo
[32] = Oral bioavailability in mouse at 30 mg/kg; assay type: ADME, organism-based; details: in vivo
[33] = Drug concentration in mouse plasma at 5 mg/kg, po after 2 hrs; assay type: ADME, organism-based
[34] = Drug concentration in mouse plasma at 5 mg/kg, po after 4 hrs; assay type: ADME, organism-based
[35] = Drug concentration in mouse plasma at 10 mg/kg, po after 2 hrs; assay type: ADME, organism-based
[36] = Drug concentration in mouse plasma at 10 mg/kg, po after 4 hrs; assay type: ADME, organism-based
[37] = Drug concentration in mouse plasma at 30 mg/kg, po after 2 hrs; assay type: ADME, organism-based
[38] = Drug concentration in mouse plasma at 30 mg/kg, po after 4 hrs; assay type: ADME, organism-based
[39] = Unbound drug concentration in mouse plasma at 5 mg/kg, po after 2 hrs; assay type: ADME, organism-based; details: in vivo
[40] = Unbound drug concentration in mouse plasma at 5 mg/kg, po after 4 hrs; assay type: ADME, organism-based; details: in vivo
[41] = Unbound drug concentration in mouse plasma at 10 mg/kg, po after 2 hrs; assay type: ADME, organism-based; details: in vivo
[42] = Unbound drug concentration in mouse plasma at 10 mg/kg, po after 4 hrs; assay type: ADME, organism-based; details: in vivo
[43] = Unbound drug concentration in mouse plasma at 30 mg/kg, po after 2 hrs; assay type: ADME, organism-based; details: in vivo
[44] = Unbound drug concentration in mouse plasma at 30 mg/kg, po after 4 hrs; assay type: ADME, organism-based; details: in vivo
[45] = Drug concentration in mouse brain at 5 mg/kg, po after 2 hrs; assay type: ADME, organism-based; details: read-out: Ct
[46] = Drug concentration in mouse brain at 5 mg/kg, po after 4 hrs; assay type: ADME, organism-based; details: read-out: Ct
[47] = Drug concentration in mouse brain at 10 mg/kg, po after 2 hrs; assay type: ADME, organism-based; details: read-out: Ct
[48] = Drug concentration in mouse brain at 10 mg/kg, po after 4 hrs; assay type: ADME, organism-based; details: read-out: Ct
[49] = Drug concentration in mouse brain at 30 mg/kg, po after 2 hrs; assay type: ADME, organism-based; details: read-out: Ct
[50] = Drug concentration in mouse brain at 30 mg/kg, po after 4 hrs; assay type: ADME, organism-based; details: read-out: Ct
[51] = Unbound drug concentration in mouse brain at 5 mg/kg, po after 2 hrs; assay type: ADME, organism-based; details: in vivo
[52] = Unbound drug concentration in mouse brain at 5 mg/kg, po after 4 hrs; assay type: ADME, organism-based; details: in vivo
[53] = Unbound drug concentration in mouse brain at 10 mg/kg, po after 2 hrs; assay type: ADME, organism-based; details: in vivo
[54] = Unbound drug concentration in mouse brain at 10 mg/kg, po after 4 hrs; assay type: ADME, organism-based; details: in vivo
[55] = Unbound drug concentration in mouse brain at 30 mg/kg, po after 2 hrs; assay type: ADME, organism-based; details: in vivo
[56] = Unbound drug concentration in mouse brain at 30 mg/kg, po after 4 hrs; assay type: ADME, organism-based; details: in vivo
A-375 [57] = assay: Antitumor activity against human A-375 cells harboring BRAF V600E mutant xenografted in Nu/nu NCR mouse assessed as IC90 coverage time at 5 mg/kg, po BID for 21 days; assay type: functional; details: time 21 day
A-375 [58] = assay: Antitumor activity against human A-375 cells harboring BRAF V600E mutant xenografted in Nu/nu NCR mouse assessed as IC90 coverage time at 10 mg/kg, po BID for 21 days; assay type: functional; details: time 21 day
A-375 [59] = assay: Antitumor activity against human A-375 cells harboring BRAF V600E mutant xenografted in Nu/nu NCR mouse assessed as tumor regression at 5 mg/kg, po BID for 21 days; assay type: functional, organism-based; details: time 21.0 day
A-375 [60] = assay: Antitumor activity against human A-375 cells harboring BRAF V600E mutant xenografted in Nu/nu NCR mouse assessed as tumor regression at 10 mg/kg, po BID measured after 2 weeks; assay type: functional, organism-based
[61] = Toxicity in Nu/nu NCR mouse subcutaneously xenografted with human A-375 cells harboring BRAF V600E mutant assessed as body weight loss at 5 to 10 mg/kg, po measured after 21 days; assay type: organism-based; details: in vivo, 504 h, dose 5-10 mg/kg, time 21 day
A-375 [62] = assay: Antitumor activity against human A-375 cells harboring BRAF V600E mutant xenografted in Nu/nu NCR mouse assessed as IC90 coverage at 5 mg/kg, po BID for 60 days; assay type: functional, organism-based; details: time 60.0 day
A-375 [63] = assay: Antitumor activity against human A-375 cells harboring BRAF V600E mutant xenografted in Nu/nu NCR mouse assessed as IC90 coverage time at 10 mg/kg, po BID for 60 days; assay type: functional; details: time 60 day
A-375 [64] = assay: Antitumor activity against human A-375 cells harboring BRAF V600E mutant xenografted in Nu/nu NCR mouse assessed as IC90 coverage time at 30 mg/kg, po BID for 60 days; assay type: functional; details: time 60 day
A-375 [65] = assay: Antitumor activity against human A-375 cells harboring BRAF V600E mutant xenografted in Nu/nu NCR mouse assessed as tumor flux inhibition at 10 to 30 mg/kg, po BID for 60 days; assay type: functional; parameters: scale not given: the % may be the effect or the level left; details: dose 10-30 mg/kg, time 60 day
A-375 [66] = assay: Antitumor activity against human A-375 cells harboring BRAF V600E mutant xenografted in Nu/nu NCR mouse assessed as tumor regression at 10 to 30 mg/kg, po BID for 60 days; assay type: functional; details: dose 10-30 mg/kg, time 60 day
[67] = Toxicity in Nu/nu NCR mouse intracerebrally xenografted with human A-375 cells harboring BRAF V600E mutant assessed as body weight loss at 5 to 10 mg/kg, po measured after 60 days; assay type: organism-based; details: in vivo, 1440 h, dose 5-10 mg/kg, time 60 day
[68] = Toxicity in Nu/nu NCR mouse intracerebrally xenografted with human A-375 cells harboring BRAF V600E mutant assessed as animal death at 5 to 10 mg/kg, po measured after 60 days; assay type: organism-based; details: in vivo, 1440 h, dose 5-10 mg/kg, time 60 day

Sequence of Voltage-gated inwardly rectifying potassium channel KCNH2 (Q12809 whole entry): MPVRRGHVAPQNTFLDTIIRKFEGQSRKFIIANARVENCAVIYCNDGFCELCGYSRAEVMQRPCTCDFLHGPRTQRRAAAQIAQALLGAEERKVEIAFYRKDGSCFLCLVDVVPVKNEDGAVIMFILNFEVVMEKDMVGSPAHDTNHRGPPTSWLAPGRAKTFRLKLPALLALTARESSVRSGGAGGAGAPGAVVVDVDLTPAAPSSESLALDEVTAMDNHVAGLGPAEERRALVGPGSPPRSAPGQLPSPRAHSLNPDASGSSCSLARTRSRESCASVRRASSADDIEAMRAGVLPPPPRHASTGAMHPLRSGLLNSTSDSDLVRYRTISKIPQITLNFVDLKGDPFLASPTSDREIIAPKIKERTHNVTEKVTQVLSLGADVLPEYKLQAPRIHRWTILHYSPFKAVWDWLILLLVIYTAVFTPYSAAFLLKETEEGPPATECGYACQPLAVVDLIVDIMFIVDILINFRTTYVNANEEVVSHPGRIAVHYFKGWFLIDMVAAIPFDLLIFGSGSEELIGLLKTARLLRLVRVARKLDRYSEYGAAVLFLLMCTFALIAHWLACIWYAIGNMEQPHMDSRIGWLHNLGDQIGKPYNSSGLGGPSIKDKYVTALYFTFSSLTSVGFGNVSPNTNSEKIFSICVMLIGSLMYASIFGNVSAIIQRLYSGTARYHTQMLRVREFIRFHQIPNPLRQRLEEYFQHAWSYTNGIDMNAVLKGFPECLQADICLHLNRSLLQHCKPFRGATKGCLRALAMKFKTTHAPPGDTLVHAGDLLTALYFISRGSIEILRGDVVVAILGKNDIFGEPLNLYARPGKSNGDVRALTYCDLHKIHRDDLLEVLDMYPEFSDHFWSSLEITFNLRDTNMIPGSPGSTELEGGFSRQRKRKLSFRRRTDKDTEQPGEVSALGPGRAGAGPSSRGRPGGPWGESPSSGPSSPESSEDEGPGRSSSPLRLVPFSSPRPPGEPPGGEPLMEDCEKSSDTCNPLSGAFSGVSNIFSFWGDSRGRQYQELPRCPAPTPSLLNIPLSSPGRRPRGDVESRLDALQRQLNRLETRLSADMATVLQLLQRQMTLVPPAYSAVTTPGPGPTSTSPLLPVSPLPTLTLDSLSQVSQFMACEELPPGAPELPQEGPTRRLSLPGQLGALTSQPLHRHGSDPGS

## Cc1c(Nc2c(F)ccc(NS(=O)(=O)CCCF)c2Cl)ccc2ncn(C)c(=O)c12 [TINLORAFENIB]
[1]
  Tmax: 1 h
[2]
  Tmax: 1 h
[3]
  Tmax: 1 h
[4]
  Cmax: 18000 ng/mL
[5]
  Cmax: 14000 ng/mL
[6]
  Vd: 0.59 L/kg
[7]
  Cmax: 4700 ng/mL
[8]
  half-life: 1.9 h
[9]
  IC50: 49.7 µM
[10]
  clearance: 3.7 mL/min/kg
[11]
  Papp A→B: 36 ×10⁻⁶ cm/s
[12]
  pKa: 7.41
[13]
  degraded: < 1%
[14]
  degraded: < 1%
[15]
  fraction unbound: 0.019
[16]
  fraction unbound: 0.003
[17]
  fraction unbound: 0.017
[18]
  fraction unbound: 0.011
[19]
  fraction unbound: 0.009
[20]
  fraction unbound: 0.087
[21]
  fraction unbound: 0.068
[22]
  fraction unbound: 0.073
[23]
  fraction unbound: 0.068
[24]
  solubility: 132 µg/mL (≈ 289 µM)
[25]
  solubility: 7.6 µg/mL (≈ 16.6 µM)
[26]
  solubility: 9.1 µg/mL (≈ 19.9 µM)
[27]
  AUC(0-inf): 28000 ng·h/mL
[28]
  AUC(0-inf): 86000 ng·h/mL
[29]
  AUC(0-inf): 176000 ng·h/mL
[30]
  bioavailability: 126%
[31]
  F: 192%
[32]
  bioavailability: 130%
[33]
  concentration at 2 h: 4200 ng/mL
[34]
  concentration at 4 h: 3100 ng/mL
[35]
  concentration at 2 h: 11000 ng/mL
[36]
  concentration at 4 h: 9900 ng/mL
[37]
  concentration at 2 h: 16000 ng/mL
[38]
  concentration at 4 h: 12000 ng/mL
[39]
  Cp(f): 79 ng/mL
[40]
  Cp(f): 59 ng/mL
[41]
  Cp(f): 220 ng/mL
[42]
  Cp(f): 190 ng/mL
[43]
  Cp(f): 300 ng/mL
[44]
  Cp(f): 230 ng/mL
[45]
  concentration at 2 h: 590 ng/g
[46]
  concentration at 4 h: 530 ng/g
[47]
  concentration at 2 h: 1600 ng/g
[48]
  concentration at 4 h: 1600 ng/g
[49]
  concentration at 2 h: 2400 ng/g
[50]
  concentration at 4 h: 2100 ng/g
[51]
  Drug uptake(free): 0.051 µg/g
[52]
  Drug uptake(free): 0.046 µg/g
[53]
  Drug uptake(free): 0.14 µg/g
[54]
  Drug uptake(free): 0.14 µg/g
[55]
  Drug uptake(free): 0.21 µg/g
[56]
  Drug uptake(free): 0.18 µg/g
A-375 [57]
  Time: ~8 h
A-375 [58]
  Time: >16 h
A-375 [59]
  Activity: Active
A-375 [60]
  Activity: Active
[61]
  Activity: < 5%
A-375 [62]
  Activity: inactive
A-375 [63]
  Time: ~16 h
A-375 [64]
  Time: >24 h
A-375 [65]
  Activity: >99%
A-375 [66]
  Activity: >90%
[67]
  Activity: < 5%
[68]
  Activity: Non-Toxic
